Test results taken from PMC5869712 (Scientific Reports, 2018).

Tests used:
Format in all cases: biochemical
[1] = target: T1, BMX (Homo sapiens, UniProt P51813); experiment: Cys-containing kinase family panel (EurofinsCerep)
T1 construct: EurofinsCerep (contract assay service)

[2] = target: T2, GRK5 (Homo sapiens, UniProt P34947); experiment: Eurofins Kinase Profiler panel; details: read-out: % inhibition (1μM), DMSO control=100%, lower=stronger
T2 construct: purchased Eurofins KinaseProfiler (Eurofins Pharma Discovery Services UK, Dundee); JAK3 also ChemPartner

[3] = target: T3, CDK6 (Homo sapiens, UniProt Q00534); experiment: Eurofins Kinase Profiler panel; details: read-out: % inhibition (1μM), DMSO control=100%, lower=stronger
T3 construct: purchased Eurofins KinaseProfiler (Eurofins Pharma Discovery Services UK, Dundee); JAK3 also ChemPartner
From the text: (§1) The assay protocol guides are commercially available from ChemPartner.

[4] = target: T4, CDK7 (Homo sapiens, UniProt P50613); experiment: Eurofins Kinase Profiler panel; details: read-out: % inhibition (1μM), DMSO control=100%, lower=stronger
T4 construct: purchased Eurofins KinaseProfiler (Eurofins Pharma Discovery Services UK, Dundee); JAK3 also ChemPartner
From the text: as §1

[5] = target: T5, CDK9 (Homo sapiens, UniProt P50750); experiment: Eurofins Kinase Profiler panel; details: read-out: % inhibition (1μM), DMSO control=100%, lower=stronger
T5 construct: purchased Eurofins KinaseProfiler (Eurofins Pharma Discovery Services UK, Dundee); JAK3 also ChemPartner
From the text: as §1

[6] = test system: CK1; experiment: Eurofins Kinase Profiler panel; details: read-out: % inhibition (1μM), DMSO control=100%, lower=stronger
From the text: as §1

[7] = target: T6, CLK2 (Homo sapiens, UniProt P49760); experiment: Eurofins Kinase Profiler panel
T6 construct: Eurofins Pharma Discovery Services UK Limited (Kinase Profiler service)
T6 sequence (P49760 whole entry): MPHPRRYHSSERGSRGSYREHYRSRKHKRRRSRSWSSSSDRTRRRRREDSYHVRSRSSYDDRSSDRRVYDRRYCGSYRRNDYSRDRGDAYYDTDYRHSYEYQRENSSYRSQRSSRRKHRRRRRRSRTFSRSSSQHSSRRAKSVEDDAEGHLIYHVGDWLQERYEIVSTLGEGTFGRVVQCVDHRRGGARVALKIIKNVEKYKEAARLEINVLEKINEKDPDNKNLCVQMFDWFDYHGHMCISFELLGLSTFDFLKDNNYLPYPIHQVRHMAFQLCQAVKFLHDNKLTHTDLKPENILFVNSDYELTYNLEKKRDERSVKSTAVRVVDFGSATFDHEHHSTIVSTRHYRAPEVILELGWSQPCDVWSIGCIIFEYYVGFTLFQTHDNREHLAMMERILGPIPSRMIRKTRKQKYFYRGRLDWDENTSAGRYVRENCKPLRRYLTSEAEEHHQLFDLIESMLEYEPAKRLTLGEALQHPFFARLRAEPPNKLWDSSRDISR
From the text: as §1

[8] = target: T7, CaMKI (Homo sapiens, UniProt Q14012); experiment: Eurofins Kinase Profiler panel; details: read-out: % inhibition (1μM), DMSO control=100%, lower=stronger
T7 construct: purchased Eurofins KinaseProfiler (Eurofins Pharma Discovery Services UK, Dundee); JAK3 also ChemPartner
From the text: as §1

[9] = target: T8, CaMKIIβ (Homo sapiens, UniProt Q13554); experiment: Eurofins Kinase Profiler panel; details: read-out: % inhibition (1μM), DMSO control=100%, lower=stronger
T8 construct: purchased Eurofins KinaseProfiler (Eurofins Pharma Discovery Services UK, Dundee); JAK3 also ChemPartner
From the text: as §1

[10] = target: T9, CaMKK2 (Homo sapiens, UniProt Q96RR4); experiment: Eurofins Kinase Profiler panel; details: read-out: % inhibition (1μM), DMSO control=100%, lower=stronger
T9 construct: purchased Eurofins KinaseProfiler (Eurofins Pharma Discovery Services UK, Dundee); JAK3 also ChemPartner
From the text: as §1

[11] = target: T10, DYRK1A (Homo sapiens, UniProt Q13627); experiment: Eurofins Kinase Profiler panel; details: read-out: % inhibition (1μM), DMSO control=100%, lower=stronger
T10 construct: purchased Eurofins KinaseProfiler (Eurofins Pharma Discovery Services UK, Dundee); JAK3 also ChemPartner
From the text: as §1

[12] = target: T11, Flt1 (Homo sapiens, UniProt P17948); experiment: Eurofins Kinase Profiler panel; details: read-out: % inhibition (1μM), DMSO control=100%, lower=stronger
T11 construct: purchased Eurofins Pharma Discovery Services UK Limited (Kinase Profiler screening platform)
From the text: as §1

[13] = target: T12, GSK3α (Homo sapiens, UniProt P49840); experiment: Eurofins Kinase Profiler panel; details: read-out: % inhibition (1μM), DMSO control=100%, lower=stronger
T12 construct: purchased Eurofins KinaseProfiler (Eurofins Pharma Discovery Services UK, Dundee); JAK3 also ChemPartner
From the text: as §1

[14] = target: T13, MSK1 (Homo sapiens, UniProt O75582); experiment: Eurofins Kinase Profiler panel; details: read-out: % inhibition (1μM), DMSO control=100%, lower=stronger
T13 construct: purchased Eurofins Pharma Discovery Services UK Limited (Kinase Profiler screening platform)
From the text: as §1

[15] = target: T14, Mer (Homo sapiens, UniProt Q12866); experiment: Eurofins Kinase Profiler panel; details: read-out: % inhibition (1μM), DMSO control=100%, lower=stronger
T14 construct: purchased Eurofins KinaseProfiler (Eurofins Pharma Discovery Services UK, Dundee); JAK3 also ChemPartner
From the text: as §1

[16] = target: T15, NEK2 (Homo sapiens, UniProt P51955); experiment: Eurofins Kinase Profiler panel; details: read-out: % inhibition (1μM), DMSO control=100%, lower=stronger
T15 construct: purchased Eurofins Pharma Discovery Services UK Limited (Kinase Profiler screening platform)
From the text: as §1

[17] = target: T16, PAK4 (Homo sapiens, UniProt O96013); experiment: Eurofins Kinase Profiler panel; details: read-out: % inhibition (1μM), DMSO control=100%, lower=stronger
T16 construct: purchased Eurofins Pharma Discovery Services UK Limited (Kinase Profiler screening platform)
T16 sequence (O96013 whole entry): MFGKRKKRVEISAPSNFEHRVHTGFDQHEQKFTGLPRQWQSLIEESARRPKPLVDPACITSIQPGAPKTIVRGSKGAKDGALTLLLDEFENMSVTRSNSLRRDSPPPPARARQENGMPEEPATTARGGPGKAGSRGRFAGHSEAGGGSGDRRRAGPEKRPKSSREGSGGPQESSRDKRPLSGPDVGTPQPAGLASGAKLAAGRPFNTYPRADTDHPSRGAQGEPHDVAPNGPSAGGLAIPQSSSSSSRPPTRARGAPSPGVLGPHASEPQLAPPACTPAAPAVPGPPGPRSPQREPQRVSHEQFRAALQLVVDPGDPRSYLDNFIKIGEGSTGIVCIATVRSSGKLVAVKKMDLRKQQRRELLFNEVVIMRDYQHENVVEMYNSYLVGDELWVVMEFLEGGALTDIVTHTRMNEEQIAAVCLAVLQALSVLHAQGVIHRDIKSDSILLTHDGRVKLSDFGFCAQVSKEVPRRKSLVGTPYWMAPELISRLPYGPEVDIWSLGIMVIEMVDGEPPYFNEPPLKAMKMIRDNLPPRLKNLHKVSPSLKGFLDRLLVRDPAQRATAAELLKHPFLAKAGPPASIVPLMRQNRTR
From the text: as §1

[18] = target: T17, PDGFRα (Homo sapiens, UniProt P16234); experiment: Eurofins Kinase Profiler panel; details: read-out: % inhibition (1μM), DMSO control=100%, lower=stronger
T17 construct: purchased Eurofins Pharma Discovery Services UK Limited (Kinase Profiler screening platform)
From the text: as §1

[19] = target: T18, PKBα (Homo sapiens, UniProt P31749); experiment: Eurofins Kinase Profiler panel; details: read-out: % inhibition (1μM), DMSO control=100%, lower=stronger
T18 construct: purchased Eurofins KinaseProfiler (Eurofins Pharma Discovery Services UK, Dundee); JAK3 also ChemPartner
From the text: as §1

[20] = target: T19, PKCζ (Homo sapiens, UniProt Q05513); experiment: Eurofins Kinase Profiler panel; details: read-out: % inhibition (1μM), DMSO control=100%, lower=stronger
T19 construct: purchased Eurofins KinaseProfiler (Eurofins Pharma Discovery Services UK, Dundee); JAK3 also ChemPartner
T19 sequence (Q05513 whole entry): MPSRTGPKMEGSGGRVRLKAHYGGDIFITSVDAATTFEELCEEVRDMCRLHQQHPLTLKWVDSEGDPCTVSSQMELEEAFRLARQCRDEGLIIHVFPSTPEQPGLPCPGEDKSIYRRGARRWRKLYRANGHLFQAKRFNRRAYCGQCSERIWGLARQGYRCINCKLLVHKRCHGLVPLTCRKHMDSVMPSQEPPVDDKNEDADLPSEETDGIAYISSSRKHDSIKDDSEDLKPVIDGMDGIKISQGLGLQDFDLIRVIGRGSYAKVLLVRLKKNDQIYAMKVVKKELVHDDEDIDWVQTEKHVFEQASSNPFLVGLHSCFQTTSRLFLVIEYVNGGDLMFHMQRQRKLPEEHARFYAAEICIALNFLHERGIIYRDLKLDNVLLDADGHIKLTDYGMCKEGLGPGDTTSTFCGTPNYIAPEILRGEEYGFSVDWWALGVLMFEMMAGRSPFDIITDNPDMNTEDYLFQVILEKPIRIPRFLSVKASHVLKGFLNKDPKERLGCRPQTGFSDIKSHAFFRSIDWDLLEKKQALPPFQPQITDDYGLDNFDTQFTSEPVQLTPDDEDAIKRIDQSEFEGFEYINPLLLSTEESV
From the text: as §1

[21] = target: T20, PKG1α (Homo sapiens, UniProt Q13976); experiment: Eurofins Kinase Profiler panel
T20 construct: Eurofins Pharma Discovery Services UK Limited (Kinase Profiler service)
T20 sequence (Q13976 whole entry): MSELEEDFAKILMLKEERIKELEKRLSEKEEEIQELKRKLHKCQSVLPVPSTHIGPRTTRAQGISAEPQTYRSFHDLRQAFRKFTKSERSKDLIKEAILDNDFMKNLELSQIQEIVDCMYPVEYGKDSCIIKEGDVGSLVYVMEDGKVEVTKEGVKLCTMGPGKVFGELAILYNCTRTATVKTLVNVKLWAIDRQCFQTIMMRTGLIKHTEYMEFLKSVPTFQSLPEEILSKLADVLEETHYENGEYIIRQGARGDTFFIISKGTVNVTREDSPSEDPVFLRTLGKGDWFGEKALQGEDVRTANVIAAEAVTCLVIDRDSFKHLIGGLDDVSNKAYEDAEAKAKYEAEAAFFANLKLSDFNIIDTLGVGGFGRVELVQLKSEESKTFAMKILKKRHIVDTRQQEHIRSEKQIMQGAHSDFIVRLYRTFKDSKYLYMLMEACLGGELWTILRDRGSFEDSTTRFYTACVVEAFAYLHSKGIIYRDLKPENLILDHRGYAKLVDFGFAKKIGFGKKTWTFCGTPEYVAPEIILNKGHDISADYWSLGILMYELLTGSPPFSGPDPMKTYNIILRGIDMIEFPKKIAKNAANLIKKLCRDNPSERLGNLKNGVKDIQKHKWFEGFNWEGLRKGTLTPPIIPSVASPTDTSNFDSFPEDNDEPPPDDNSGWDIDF
From the text: as §1

[22] = target: T21, PRK2 (Homo sapiens, UniProt Q16513); experiment: Eurofins Kinase Profiler panel; details: read-out: % inhibition (1μM), DMSO control=100%, lower=stronger
T21 construct: purchased Eurofins KinaseProfiler (Eurofins Pharma Discovery Services UK, Dundee); JAK3 also ChemPartner
From the text: as §1

[23] = target: T22, Pim-1 (Homo sapiens, UniProt P11309); experiment: Eurofins Kinase Profiler panel; details: read-out: % inhibition (1μM), DMSO control=100%, lower=stronger
T22 construct: purchased Eurofins Pharma Discovery Services UK Limited (Kinase Profiler screening platform)
From the text: as §1

[24] = target: T23, Plk3 (Homo sapiens, UniProt Q9H4B4); experiment: Eurofins Kinase Profiler panel; details: read-out: % inhibition (1μM), DMSO control=100%, lower=stronger
T23 construct: purchased Eurofins KinaseProfiler (Eurofins Pharma Discovery Services UK, Dundee); JAK3 also ChemPartner
From the text: as §1

[25] = target: T24, ROCK-I (Homo sapiens, UniProt Q13464); experiment: Eurofins Kinase Profiler panel; details: read-out: % inhibition (1μM), DMSO control=100%, lower=stronger
T24 construct: purchased Eurofins KinaseProfiler (Eurofins Pharma Discovery Services UK, Dundee); JAK3 also ChemPartner
From the text: as §1

[26] = target: T25, ROCK-II (Homo sapiens, UniProt O75116); experiment: Eurofins Kinase Profiler panel; details: read-out: % inhibition (1μM), DMSO control=100%, lower=stronger
T25 construct: purchased Eurofins KinaseProfiler (Eurofins Pharma Discovery Services UK, Dundee); JAK3 also ChemPartner
From the text: as §1

[27] = target: T26, Ret (Homo sapiens, UniProt P07949); experiment: Eurofins Kinase Profiler panel; details: read-out: % inhibition (1μM), DMSO control=100%, lower=stronger
T26 construct: purchased Eurofins KinaseProfiler (Eurofins Pharma Discovery Services UK, Dundee); JAK3 also ChemPartner
From the text: as §1

[28] = target: T27, SAPK2a (Homo sapiens, UniProt Q16539); experiment: Eurofins Kinase Profiler panel; details: read-out: % inhibition (1μM), DMSO control=100%, lower=stronger
T27 construct: purchased Eurofins KinaseProfiler (Eurofins Pharma Discovery Services UK, Dundee); JAK3 also ChemPartner
From the text: as §1

[29] = target: T28, SAPK2b (Homo sapiens, UniProt Q15759); experiment: Eurofins Kinase Profiler panel; details: read-out: % inhibition (1μM), DMSO control=100%, lower=stronger
T28 construct: purchased Eurofins KinaseProfiler (Eurofins Pharma Discovery Services UK, Dundee); JAK3 also ChemPartner
T28 sequence (Q15759 whole entry): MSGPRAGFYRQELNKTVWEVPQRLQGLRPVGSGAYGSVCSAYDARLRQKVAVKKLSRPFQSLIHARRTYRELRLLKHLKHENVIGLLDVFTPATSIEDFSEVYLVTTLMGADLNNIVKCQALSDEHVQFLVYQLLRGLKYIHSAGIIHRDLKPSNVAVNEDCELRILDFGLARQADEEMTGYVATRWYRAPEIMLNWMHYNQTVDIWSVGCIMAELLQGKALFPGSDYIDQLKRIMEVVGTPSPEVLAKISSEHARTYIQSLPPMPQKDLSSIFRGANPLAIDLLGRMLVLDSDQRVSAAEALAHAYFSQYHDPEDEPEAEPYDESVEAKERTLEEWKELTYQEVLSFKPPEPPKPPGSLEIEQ
From the text: as §1

[30] = target: T29, SAPK3 (Homo sapiens, UniProt P53778); experiment: Eurofins Kinase Profiler panel; details: read-out: % inhibition (1μM), DMSO control=100%, lower=stronger
T29 construct: purchased Eurofins KinaseProfiler (Eurofins Pharma Discovery Services UK, Dundee); JAK3 also ChemPartner
From the text: as §1

[31] = target: T30, SAPK4 (Homo sapiens, UniProt O15264); experiment: Eurofins Kinase Profiler panel; details: read-out: % inhibition (1μM), DMSO control=100%, lower=stronger
T30 construct: purchased Eurofins KinaseProfiler (Eurofins Pharma Discovery Services UK, Dundee); JAK3 also ChemPartner
T30 sequence (O15264 whole entry): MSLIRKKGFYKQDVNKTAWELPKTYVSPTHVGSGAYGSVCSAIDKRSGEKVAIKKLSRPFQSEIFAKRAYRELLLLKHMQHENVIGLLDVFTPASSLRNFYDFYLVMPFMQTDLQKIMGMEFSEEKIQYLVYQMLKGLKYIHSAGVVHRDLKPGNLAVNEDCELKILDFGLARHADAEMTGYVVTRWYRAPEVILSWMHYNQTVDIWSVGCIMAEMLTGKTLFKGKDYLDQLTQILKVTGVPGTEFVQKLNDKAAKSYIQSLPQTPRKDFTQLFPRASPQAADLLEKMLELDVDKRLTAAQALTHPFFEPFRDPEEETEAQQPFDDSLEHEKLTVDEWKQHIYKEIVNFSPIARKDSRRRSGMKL
From the text: as §1

[32] = target: T31, SGK (Homo sapiens, UniProt O00141); experiment: Eurofins Kinase Profiler panel; details: read-out: % inhibition (1μM), DMSO control=100%, lower=stronger
T31 construct: purchased Eurofins KinaseProfiler (Eurofins Pharma Discovery Services UK, Dundee); JAK3 also ChemPartner
From the text: as §1

[33] = target: T32, STK33 (Homo sapiens, UniProt Q9BYT3); experiment: Eurofins Kinase Profiler panel; details: read-out: % inhibition (1μM), DMSO control=100%, lower=stronger
T32 construct: purchased Eurofins KinaseProfiler (Eurofins Pharma Discovery Services UK, Dundee); JAK3 also ChemPartner
From the text: as §1

[34] = target: T33, Src (Homo sapiens, UniProt P12931); experiment: Eurofins Kinase Profiler panel; details: read-out: % inhibition (1μM), DMSO control=100%, lower=stronger
T33 construct: purchased Eurofins KinaseProfiler (Eurofins Pharma Discovery Services UK, Dundee); JAK3 also ChemPartner
T33 sequence (P12931 whole entry): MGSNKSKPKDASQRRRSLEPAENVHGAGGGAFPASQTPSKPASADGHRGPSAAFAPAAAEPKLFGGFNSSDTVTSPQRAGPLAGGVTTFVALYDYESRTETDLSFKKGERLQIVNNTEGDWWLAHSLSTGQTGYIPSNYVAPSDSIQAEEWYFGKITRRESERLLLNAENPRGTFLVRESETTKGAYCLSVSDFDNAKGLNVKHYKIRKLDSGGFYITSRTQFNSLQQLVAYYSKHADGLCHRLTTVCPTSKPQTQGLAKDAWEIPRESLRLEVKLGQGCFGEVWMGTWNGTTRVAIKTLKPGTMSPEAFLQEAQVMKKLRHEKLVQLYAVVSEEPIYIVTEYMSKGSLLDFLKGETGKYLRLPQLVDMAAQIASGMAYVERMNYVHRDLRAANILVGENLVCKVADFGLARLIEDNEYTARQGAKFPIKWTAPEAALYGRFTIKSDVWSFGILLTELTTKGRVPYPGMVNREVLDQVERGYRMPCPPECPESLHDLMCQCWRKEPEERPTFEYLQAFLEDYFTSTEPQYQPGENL
From the text: as §1

[35] = target: T34, Syk (Homo sapiens, UniProt P43405); experiment: Eurofins Kinase Profiler panel; details: read-out: % inhibition (1μM), DMSO control=100%, lower=stronger
T34 construct: Eurofins Pharma Discovery Services UK Limited (Kinase Profiler service)
From the text: as §1

[36] = target: T35, TBK1 (Homo sapiens, UniProt Q9UHD2); experiment: Eurofins Kinase Profiler panel; details: read-out: % inhibition (1μM), DMSO control=100%, lower=stronger
T35 construct: purchased Eurofins Pharma Discovery Services UK Limited (Kinase Profiler screening platform)
T35 sequence (Q9UHD2 whole entry): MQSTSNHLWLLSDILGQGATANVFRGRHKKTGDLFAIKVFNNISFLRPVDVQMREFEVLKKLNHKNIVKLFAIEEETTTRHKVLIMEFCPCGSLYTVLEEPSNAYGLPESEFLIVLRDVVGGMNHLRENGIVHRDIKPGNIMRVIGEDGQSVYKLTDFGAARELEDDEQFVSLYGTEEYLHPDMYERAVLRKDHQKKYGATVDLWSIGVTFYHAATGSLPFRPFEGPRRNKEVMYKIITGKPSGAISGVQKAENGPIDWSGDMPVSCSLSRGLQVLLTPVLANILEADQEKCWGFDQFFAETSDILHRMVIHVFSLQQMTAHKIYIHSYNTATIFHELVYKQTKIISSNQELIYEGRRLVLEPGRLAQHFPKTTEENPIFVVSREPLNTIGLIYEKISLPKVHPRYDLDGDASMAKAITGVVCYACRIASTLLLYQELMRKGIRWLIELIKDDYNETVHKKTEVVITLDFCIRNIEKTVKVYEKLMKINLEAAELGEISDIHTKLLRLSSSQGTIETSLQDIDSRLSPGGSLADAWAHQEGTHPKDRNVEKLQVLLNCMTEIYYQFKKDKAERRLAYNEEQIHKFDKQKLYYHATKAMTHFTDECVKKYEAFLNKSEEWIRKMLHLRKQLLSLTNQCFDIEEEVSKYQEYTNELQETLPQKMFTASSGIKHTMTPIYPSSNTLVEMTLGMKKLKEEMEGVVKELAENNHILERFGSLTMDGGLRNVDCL
From the text: as §1

[37] = target: T36, TrkB (Homo sapiens, UniProt Q16620); experiment: Eurofins Kinase Profiler panel; details: read-out: % inhibition (1μM), DMSO control=100%, lower=stronger
T36 construct: purchased Eurofins Pharma Discovery Services UK Limited (Kinase Profiler screening platform)
From the text: as §1

[38] = target: T37, TrkC (Homo sapiens, UniProt Q16288); experiment: Eurofins Kinase Profiler panel; details: read-out: % inhibition (1μM), DMSO control=100%, lower=stronger
T37 construct: purchased Eurofins Pharma Discovery Services UK Limited (Kinase Profiler screening platform)
From the text: as §1

[39] = target: T38, Wee1 (Homo sapiens, UniProt P30291); experiment: Eurofins Kinase Profiler panel; details: read-out: % inhibition (1μM), DMSO control=100%, lower=stronger
T38 construct: purchased Eurofins Pharma Discovery Services UK Limited (Kinase Profiler screening platform)
From the text: as §1

[40] = target: T39, ZIPK (Homo sapiens, UniProt O43293); experiment: Eurofins Kinase Profiler panel; details: read-out: % inhibition (1μM), DMSO control=100%, lower=stronger
T39 construct: purchased Eurofins Pharma Discovery Services UK Limited (Kinase Profiler screening platform)
From the text: as §1

[41] = read-out: % inhibition (1μM), 1 µM, DMSO control=100%, lower=stronger

T1 sequence (P51813 whole entry): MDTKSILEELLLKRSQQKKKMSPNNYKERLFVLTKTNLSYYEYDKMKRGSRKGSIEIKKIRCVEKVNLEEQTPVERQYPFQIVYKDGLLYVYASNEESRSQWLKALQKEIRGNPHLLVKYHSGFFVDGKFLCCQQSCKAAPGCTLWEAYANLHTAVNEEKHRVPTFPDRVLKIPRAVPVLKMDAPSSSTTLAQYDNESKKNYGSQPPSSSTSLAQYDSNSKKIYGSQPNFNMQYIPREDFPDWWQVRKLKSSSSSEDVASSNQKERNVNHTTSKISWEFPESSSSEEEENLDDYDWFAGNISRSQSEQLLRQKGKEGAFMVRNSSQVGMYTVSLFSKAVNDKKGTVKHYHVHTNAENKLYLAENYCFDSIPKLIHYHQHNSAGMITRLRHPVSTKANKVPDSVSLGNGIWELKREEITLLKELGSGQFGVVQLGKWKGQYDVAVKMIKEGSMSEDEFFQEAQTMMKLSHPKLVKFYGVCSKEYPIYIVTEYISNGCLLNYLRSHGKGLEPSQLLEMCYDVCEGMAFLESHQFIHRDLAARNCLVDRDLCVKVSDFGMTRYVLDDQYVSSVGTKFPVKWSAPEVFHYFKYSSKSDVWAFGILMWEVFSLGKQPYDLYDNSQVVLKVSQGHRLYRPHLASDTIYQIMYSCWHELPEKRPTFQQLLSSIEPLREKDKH

SMILES: C=CC(=O)N[C@@H]1CCCN(c2ncnc3[nH]ccc23)C1 [RB1]
- inhibition at 1 µM [1]: 4%
- activity at 1 µM [2]: 94%
- activity at 1 µM [3]: 100%
- activity at 1 µM [4]: 95%
- activity at 1 µM [5]: 101%
- activity [6]: 82%
- IC50 ([7]; estimated): > 800 nM
- activity at 1 µM [7, 41]: 18%
- activity at 1 µM [8]: 96%
- activity at 1 µM [9]: 85%
- activity at 1 µM [10]: 101%
- activity at 1 µM [11]: 91%
- activity at 1 µM [12]: 93%
- activity at 1 µM [13]: 82%
- activity at 1 µM [14]: 74%
- activity at 1 µM [15]: 68%
- activity at 1 µM [16]: 99%
- activity at 1 µM [17]: 81%
- activity at 1 µM [18]: 96%
- activity at 1 µM [19]: 94%
- activity at 1 µM [20]: 106%
- IC50 ([21]; estimated): > 800 nM
- activity at 1 µM [21, 41]: 23%
- activity at 1 µM [22]: 79%
- activity at 1 µM [23]: 62%
- activity at 1 µM [24]: 99%
- activity at 1 µM [25]: 88%
- activity at 1 µM [26]: 88%
- activity at 1 µM [27]: 86%
- activity at 1 µM [28]: 100%
- activity at 1 µM [29]: 103%
- activity at 1 µM [30]: 94%
- activity at 1 µM [31]: 95%
- activity at 1 µM [32]: 92%
- activity at 1 µM [33]: 93%
- activity at 1 µM [34]: 102%
- activity at 1 µM [35]: 104%
- activity at 1 µM [36]: 96%
- activity at 1 µM [37]: 38%
- activity at 1 µM [38]: 75%
- activity at 1 µM [39]: 90%
- activity at 1 µM [40]: 107%
